Measured values as given in publication PMC11558673, “Exploring LCST- and UCST-like Behavior of Branched Molecules Bearing Repeat Units of Elastin-like Peptides as Side Components” (Biomacromolecules, 2024).

Tests used:
[1] = Turbidity measurement (LCST/UCST-like behavior, Tt); assay type: physicochemical; details: for Tt for the LCST-like behavior: Tt = temperature at half the maximum turbidity, mean ± standard error, at least three measurements; for Temperature-responsive behavior in turbidity measurement: heating to 90 °C and cooling to 5 °C at 1 °C/min, turbidity at 400 nm
Experimental: Temperature-responsive properties (LCST/UCST-like behavior and its reversibility) were investigated by using a JASCO V-660 spectral photometer (JASCO, Tokyo, Japan). Each peptide was dissolved in phosphate buffer containing NaCl (pH 7.4, 27.4 mM Na2HPO4, 17.8 mM NaH2PO4, 1 M NaCl). NaCl in this concentration is used as an additive to trigger an LCST-like behavior for the inverse transition cycling (a method to purify a protein exploiting the LCST-like behavior of ELPs).[9] The turbidity at 400 nm of each branched ELP solution was traced while increasing or decreasing the temperature at a rate of 0.5 °C/min, except for samples at 0.5 mM, which were traced at 1 °C/min for heating–cooling cycle measurements. For the samples at 0.5 mM, after heating to 90 °C or cooling to 5 °C, the samples were vortexed to eliminate any possible concentration gradients caused by peptide precipitation and kept at 90 or 5 °C for 30 min before starting the subsequent cooling or heating, respectively. The transition temperature (Tt) for LCST was defined as a temperature at which the turbidity of the solution reaches half the maximum value while increasing the temperature. Measurements were performed at least three times.

[2] = DLS measurement of particle size distribution; assay type: physicochemical; details: peptide 0.5 mM, filtered phosphate buffer pH 7.4 with 1 M NaCl
Experimental: The particle size distribution of branched ELPs was analyzed in filtered phosphate buffer (pH 7.4, 27.4 mM Na2HPO4, 17.8 mM NaH2PO4) containing 1 M NaCl using DLS with a Zetasizer Nano ZS (Malvern Instruments, Worcestershire, U.K.) DLS analysis was performed at temperatures ranging from 15 to 55 °C with 10 °C intervals for [α-E(F1)]n-F1 and [γ-E(F1)]n-F1 under conditions where the ELPs have Tt values around 30 °C for LCST-like behavior (n = 4, 2.5 mM; n = 5, 1 mM; n = 6, 0.5 mM). Additionally, a solution of [α-E(F1)]5-F1 at 0.5 mM was analyzed at 20, 60, and 90 °C. The measurement duration was selected automatically. The parameter data set “protein” (data set: refractive index, 1.450; absorption, 0.001) was used as the material parameter, and the parameter data set “water” (data set: refractive index, 1.330; viscosity, 0.8872) was chosen as the dispersant parameter. Attenuation was selected automatically.

ThT fluorescence assay = assay type: physicochemical; details: peptide 1 mM; 50 μM ThT; phosphate buffer pH 7.4 with 1 M NaCl; excitation 446 nm, emission 483 nm
Experimental: A ThT fluorescence assay was conducted using an FP-8500 fluorescence spectrometer (JASCO Co.). The phosphate buffer solutions (pH 7.4, 27.4 mM Na2HPO4, 17.8 mM NaH2PO4) of [α-E(F1)]5-F1 (1 or 0.5 mM) containing 1 M NaCl and 50 μM ThT were prepared. The temperature change rates were the same as those in the turbidity measurements. Using an excitation wavelength of 446 nm, the ThT fluorescence intensities at 483 nm upon temperature changes or over time were recorded.

[3] = CD measurement (aggregation observed in sample); assay type: physicochemical; details: 0.1 mg/mL in filtered phosphate buffer pH 7.4 without NaCl; 10 to 90 °C
Experimental: CD measurements were carried out using a J-725 spectropolarimeter (JASCO) for [α-E(F1)]5-F1 and [γ-E(F1)]5-F1 in a cuvette with a path length of 1.0 mm. Each peptide was dissolved in filtered phosphate buffer (pH 7.4, 27.4 mM Na2HPO4, and 17.8 mM NaH2PO4) at a concentration of 0.1 mg/mL. […] Spectra were obtained from 190 to 260 nm at temperatures ranging from 10 to 90 °C with 20 °C intervals. Each measurement was performed after 3 min of equilibration at the target temperature. After subtracting the background spectra, Savitzky–Golay filters were applied to smooth all spectra.

[4] = monomeric pentapeptide; cited from earlier work
From the text: Short ELPs with a (VPGVG)n sequence ...

[5] = peptide 1.5 mM, turbidity at 400 nm on heating 0.5 °C/min, phosphate buffer pH 7.4 with 1 M NaCl
[6] = peptide 2.5 mM, turbidity at 400 nm on heating 0.5 °C/min, phosphate buffer pH 7.4 with 1 M NaCl
[7] = peptide 4 mM, turbidity at 400 nm on heating 0.5 °C/min, phosphate buffer pH 7.4 (27.4 mM Na2HPO4, 17.8 mM NaH2PO4) with 1 M NaCl
[8] = peptide 0.5 mM, phosphate buffer pH 7.4 with 1 M NaCl
[9] = peptide 0.5 mM, turbidity at 400 nm on heating (1 °C/min for heating-cooling cycle measurements), phosphate buffer pH 7.4 with 1 M NaCl
[10] = peptide 1 mM, turbidity at 400 nm on heating 0.5 °C/min, phosphate buffer pH 7.4 with 1 M NaCl

Row | Tt for the LCST-like behavior [1, 6] | Tt for the LCST-like behavior [1, 9] | Tt for the LCST-like behavior [1, 10] | Compound | other results
1 | 29.98 ± 1.82 °C | – | – | CC(C)[C@H](NC(=O)CNC(=O)[C@@H]1CCCN1C(=O)[C@H](Cc1ccccc1)NC(=O)CC[C@H](NC(=O)[C@H](CCC(=O)N[C@@H](Cc1ccccc1)C(=O)N1CCC[C@H]1C(=O)NCC(=O)N[C@H](C(=O)NCC(N)=O)C(C)C)NC(=O)[C@@H](N)CCC(=O)N[C@@H](Cc1ccccc1)C(=O)N1CCC[C@H]1C(=O)NCC(=O)N[C@H](C(=O)NCC(N)=O)C(C)C)C(=O)N[C@@H](CCC(=O)N[C@@H](Cc1ccccc1)C(=O)N1CCC[C@H]1C(=O)NCC(=O)N[C@H](C(=O)NCC(N)=O)C(C)C)C(=O)N[C@@H](Cc1ccccc1)C(=O)N1CCC[C@H]1C(=O)NCC(=O)N[C@H](C(=O)NCC(N)=O)C(C)C)C(=O)NCC(N)=O [[α-E(F1)]4-F1] | Tt for the LCST-like behavior [1, 5]: 47.04 ± 0.81 °C; Tt for the LCST-like behavior [1, 7]: 21.12 ± 1.68 °C
2 | 13.86 ± 0.33 °C | 56.92 ± 1.28 °C | – | CC(C)[C@H](NC(=O)CNC(=O)[C@@H]1CCCN1C(=O)[C@H](Cc1ccccc1)NC(=O)CC[C@H](NC(=O)[C@H](CCC(=O)N[C@@H](Cc1ccccc1)C(=O)N1CCC[C@H]1C(=O)NCC(=O)N[C@H](C(=O)NCC(N)=O)C(C)C)NC(=O)[C@H](CCC(=O)N[C@@H](Cc1ccccc1)C(=O)N1CCC[C@H]1C(=O)NCC(=O)N[C@H](C(=O)NCC(N)=O)C(C)C)NC(=O)[C@@H](N)CCC(=O)N[C@@H](Cc1ccccc1)C(=O)N1CCC[C@H]1C(=O)NCC(=O)N[C@H](C(=O)NCC(N)=O)C(C)C)C(=O)N[C@@H](CCC(=O)N[C@@H](Cc1ccccc1)C(=O)N1CCC[C@H]1C(=O)NCC(=O)N[C@H](C(=O)NCC(N)=O)C(C)C)C(=O)N[C@@H](Cc1ccccc1)C(=O)N1CCC[C@H]1C(=O)NCC(=O)N[C@H](C(=O)NCC(N)=O)C(C)C)C(=O)NCC(N)=O [[α-E(F1)]5-F1] | Temperature-responsive behavior in turbidity measurement [1, 8]: both LCST- and UCST-like behavior; Solubility at 90 °C ([1]; peptide 1 mM and 2.5 mM at 90 °C, phosphate buffer pH 7.4 with 1 M NaCl, images of measurement cell): insoluble; Hydrodynamic diameter at 20, 60 and 90 °C [2]: larger hydrodynamic diameters at 60 °C compared to the ones at 20 or 90 °C; ThT fluorescence intensity upon heating (ThT fluorescence assay): sharp increase in fluorescence intensity around Tt; Aggregation behavior in CD sample [3]: apparent aggregation behavior was not observed
3 | 7.68 ± 0.80 °C | 33.80 ± 0.38 °C | 19.76 ± 0.97 °C | CC(C)[C@H](NC(=O)CNC(=O)[C@@H]1CCCN1C(=O)[C@H](Cc1ccccc1)NC(=O)CC[C@H](NC(=O)[C@H](CCC(=O)N[C@@H](Cc1ccccc1)C(=O)N1CCC[C@H]1C(=O)NCC(=O)N[C@H](C(=O)NCC(N)=O)C(C)C)NC(=O)[C@H](CCC(=O)N[C@@H](Cc1ccccc1)C(=O)N1CCC[C@H]1C(=O)NCC(=O)N[C@H](C(=O)NCC(N)=O)C(C)C)NC(=O)[C@@H](N)CCC(=O)N[C@@H](Cc1ccccc1)C(=O)N1CCC[C@H]1C(=O)NCC(=O)N[C@H](C(=O)NCC(N)=O)C(C)C)C(=O)N[C@@H](CCC(=O)N[C@@H](Cc1ccccc1)C(=O)N1CCC[C@H]1C(=O)NCC(=O)N[C@H](C(=O)NCC(N)=O)C(C)C)C(=O)N[C@@H](CCC(=O)N[C@@H](Cc1ccccc1)C(=O)N1CCC[C@H]1C(=O)NCC(=O)N[C@H](C(=O)NCC(N)=O)C(C)C)C(=O)N[C@@H](Cc1ccccc1)C(=O)N1CCC[C@H]1C(=O)NCC(=O)N[C@H](C(=O)NCC(N)=O)C(C)C)C(=O)NCC(N)=O [[α-E(F1)]6-F1] | –
4 | 30.25 ± 0.23 °C | – | – | CC(C)[C@H](NC(=O)CNC(=O)[C@@H]1CCCN1C(=O)[C@H](Cc1ccccc1)NC(=O)CC[C@H](NC(=O)CC[C@H](NC(=O)CC[C@H](NC(=O)CC[C@H](N)C(=O)N[C@@H](Cc1ccccc1)C(=O)N1CCC[C@H]1C(=O)NCC(=O)N[C@H](C(=O)NCC(N)=O)C(C)C)C(=O)N[C@@H](Cc1ccccc1)C(=O)N1CCC[C@H]1C(=O)NCC(=O)N[C@H](C(=O)NCC(N)=O)C(C)C)C(=O)N[C@@H](Cc1ccccc1)C(=O)N1CCC[C@H]1C(=O)NCC(=O)N[C@H](C(=O)NCC(N)=O)C(C)C)C(=O)N[C@@H](Cc1ccccc1)C(=O)N1CCC[C@H]1C(=O)NCC(=O)N[C@H](C(=O)NCC(N)=O)C(C)C)C(=O)NCC(N)=O [[γ-E(F1)]4-F1] | Tt for the LCST-like behavior [1, 5]: 46.52 ± 0.67 °C; Tt for the LCST-like behavior [1, 7]: 20.75 ± 0.47 °C
5 | 17.38 ± 0.10 °C | 61.87 ± 0.60 °C | 34.73 ± 0.52 °C | CC(C)[C@H](NC(=O)CNC(=O)[C@@H]1CCCN1C(=O)[C@H](Cc1ccccc1)NC(=O)CC[C@H](NC(=O)CC[C@H](NC(=O)CC[C@H](NC(=O)CC[C@H](NC(=O)CC[C@H](N)C(=O)N[C@@H](Cc1ccccc1)C(=O)N1CCC[C@H]1C(=O)NCC(=O)N[C@H](C(=O)NCC(N)=O)C(C)C)C(=O)N[C@@H](Cc1ccccc1)C(=O)N1CCC[C@H]1C(=O)NCC(=O)N[C@H](C(=O)NCC(N)=O)C(C)C)C(=O)N[C@@H](Cc1ccccc1)C(=O)N1CCC[C@H]1C(=O)NCC(=O)N[C@H](C(=O)NCC(N)=O)C(C)C)C(=O)N[C@@H](Cc1ccccc1)C(=O)N1CCC[C@H]1C(=O)NCC(=O)N[C@H](C(=O)NCC(N)=O)C(C)C)C(=O)N[C@@H](Cc1ccccc1)C(=O)N1CCC[C@H]1C(=O)NCC(=O)N[C@H](C(=O)NCC(N)=O)C(C)C)C(=O)NCC(N)=O [[γ-E(F1)]5-F1] | Temperature-responsive behavior in turbidity measurement [1, 8]: both LCST- and UCST-like behavior; Aggregation behavior in CD sample [3]: apparent aggregation behavior was not observed
6 | 8.63 ± 0.31 °C | 34.56 ± 0.48 °C | 23.66 ± 0.06 °C | CC(C)[C@H](NC(=O)CNC(=O)[C@@H]1CCCN1C(=O)[C@H](Cc1ccccc1)NC(=O)CC[C@H](NC(=O)CC[C@H](NC(=O)CC[C@H](NC(=O)CC[C@H](NC(=O)CC[C@H](NC(=O)CC[C@H](N)C(=O)N[C@@H](Cc1ccccc1)C(=O)N1CCC[C@H]1C(=O)NCC(=O)N[C@H](C(=O)NCC(N)=O)C(C)C)C(=O)N[C@@H](Cc1ccccc1)C(=O)N1CCC[C@H]1C(=O)NCC(=O)N[C@H](C(=O)NCC(N)=O)C(C)C)C(=O)N[C@@H](Cc1ccccc1)C(=O)N1CCC[C@H]1C(=O)NCC(=O)N[C@H](C(=O)NCC(N)=O)C(C)C)C(=O)N[C@@H](Cc1ccccc1)C(=O)N1CCC[C@H]1C(=O)NCC(=O)N[C@H](C(=O)NCC(N)=O)C(C)C)C(=O)N[C@@H](Cc1ccccc1)C(=O)N1CCC[C@H]1C(=O)NCC(=O)N[C@H](C(=O)NCC(N)=O)C(C)C)C(=O)N[C@@H](Cc1ccccc1)C(=O)N1CCC[C@H]1C(=O)NCC(=O)N[C@H](C(=O)NCC(N)=O)C(C)C)C(=O)NCC(N)=O [[γ-E(F1)]6-F1] | –
7 | – | – | – | H-FPGVG-NH2 [F1, monomeric elastin-like pentapeptide Phe-Pro-Gly-Val-Gly amide] | Coacervation (LCST-like behavior) [4]: did not show coacervation
